Data on three compounds can be found in patent US20240018158A1, “BRM TARGETING COMPOUNDS AND ASSOCIATED METHODS OF USE” (Prelude Therapeutics Incorporated, priority 2020, published 2024).

The target in experiment [1] is bromo domain of SMARCA4 protein (Homo sapiens (Human), UniProt P40337+P51532). Nature of the experiment: SMARCA4 bromodomain ternary binding TR-FRET assay (with VCB). To be noted: with saturating VCB (5 μM); read-out: IC50 (SM4_T) ternary binding potency in SMARCA4 FRET assay. As for the experimental part:
Recombinant bromo domain of SMARCA4 protein, was purchased from Active Motif (31401). The inhibitory activity of compounds was evaluated in vitro using TR-FRET assay with white 384-well low volume microplate (PerkinElmer ProxiPlate Plus), in which the compound competes the same binding site with the ligand, and thus lead to dose-dependent TR-FRET signal reduction. The cooperativity of the compounds for ternary complex formation with E3 ligase was evaluated in the absence or presence of saturating concentrations of VCB. Testing compounds were dissolved in DMSO at 10 mM and tested in 9-point IC50 mode. The assay mixture was prepared by mixing SMARCA4 (20 nM final), biotinylated probe (25 nM final), and assay buffer or VCB (5 μM) in 1×AlphaLISA Epigenetics Buffer (PerkinElmer AL008F) with 1 mM TCEP. The compounds of interest in DMSO were added to each well in 3-fold serial dilution by dispenser (TECAN D300E). and incubate for 20 minutes at room temperature before addition of detection reagents, Lance Eu W1024 anti-6×His (0.6 nM final, PerkinElmer AD0110) and Streptavidin Surelight APC (6 nM final, PerkinElmer CR130-100). The plate was then sealed and further incubated at 4° C. overnight in dark, and then was read by Envision multimode plate reader (PerkinElmer, 2102-0010). The ratio of florescence signal at 665/620 was used in data analysis. Percentage inhibition was calculated by % inhibition=100×(FDMSO-F)/(FDMSO-FPC), in which FDMSO is DMSO control, and FPC is positive control. IC50 values were determined from dose response curve by fitting the percent inhibition against compound concentration using GraphPad Prism software.
On the technique in general: Time-resolved FRET reads energy transfer from a long-lived donor to a nearby acceptor.

The target in a further experiment is SMARCA4 (Homo sapiens (Human), UniProt P51532). Nature of the experiment: In Cell Western SMARCA4 degradation in NCIH520 cells. Type of experiment: cell-based. To be noted: for DC50: read-out: DC50 (SM4_H520) SMARCA4 degradation potency. On the procedure:
Compound titration and cell culture: Compounds were dissolved in DMSO to make 10 mM stock and 3-fold series dilutions were further conducted keeping the highest concentration 10 μM. NCIH1693 and NCIH520 cells were maintained in PRMI 1640 medium (Corning Cellgro, Catalog #:10-040-CV) supplemented with 10% v/v FBS (GE Healthcare, Catalog #: SH30910.03) by splitting 1:3 twice a week.
To determine SMACRA2 and SMARCA4 protein degradation DC50 values in NCIH1693 and NCIH520 cells by In Cell Western (ICW) analysis. Cells were trypsinized and 30 thousand cells/well were seeded into 384-well plates and were allowed to grow for 5 hours at 37° C. Eight-point, 3-fold serial dilutions of compounds from 10 mM stocks were added to the cells (using digital Dispenser D300-Tecan, keeping highest concentration 10 μM and normalizing with DMSO at the highest dispensed volume). Plates were incubated at 37° C. for overnight (maximum 18 hours). Cells incubated with DMSO was used as a vehicle control.
To perform In Cell Western, medium was removed from all the wells leaving cells attached to the surface. After removing the medium, cells were fixed within the plates with 40 μL of 4% formaldehyde by incubating at room temperature for 30 minutes, and then permeabilized with wash buffer (1×PBS with 0.1% Triton X-100) by washing the plate 5 times with 50 μL/well. Before labeling with primary antibodies, cells were blocked with 30 μL/well of blocking buffer (Licor Odyssey blocking buffer PBS #927-40000) for 30 minutes at room temperature. To measure SMARCA2 or SMARCA4 proteins, cells were labeled with 20 μL/well of anti SMARCA2 or SMACRA4 antibodies (Cell Signaling BRM #11966S 1:1000, Cell Signaling BRG #49360S 1:1000) diluted in Li-Cor Odyssey blocking buffer-PBS #927-40000, followed by overnight incubation at 4° C.
The next day, plates were washed 5×5 minutes with 50 μL/well of washing buffer to remove all the excess primary antibody and then 20 μL from a mixture of secondary antibody and fluorescent DNA specific dye (Goat anti rabbit 1:500 IRDye-800CW #92632211, and DRAQ5™ 1:2000-#ab108410) was added to each well. Plates were incubated for 1 hour at room temperature with gentle rocking. Cells were washed 5 times with 50 μL/well wash buffer, followed by one last wash with DI water, followed by 10 mins drying at 37° C. oven before scanning. Plates were scanned using Li-Cor Odyssey CLx imaging system to acquire integrated intensities at 700 nm and 800 nm. SMARCA signals were normalized to total cell count and then these normalized values were used to calculate the percent degradation relative to DMSO control and maximum inhibition. DC50s were calculated by using the GraphPad Prism4 program based on sigmoidal dose response equation ([Inhibitor] vs. normalized response−Variable slope).

SMARCA4, sequence (P51532 whole entry): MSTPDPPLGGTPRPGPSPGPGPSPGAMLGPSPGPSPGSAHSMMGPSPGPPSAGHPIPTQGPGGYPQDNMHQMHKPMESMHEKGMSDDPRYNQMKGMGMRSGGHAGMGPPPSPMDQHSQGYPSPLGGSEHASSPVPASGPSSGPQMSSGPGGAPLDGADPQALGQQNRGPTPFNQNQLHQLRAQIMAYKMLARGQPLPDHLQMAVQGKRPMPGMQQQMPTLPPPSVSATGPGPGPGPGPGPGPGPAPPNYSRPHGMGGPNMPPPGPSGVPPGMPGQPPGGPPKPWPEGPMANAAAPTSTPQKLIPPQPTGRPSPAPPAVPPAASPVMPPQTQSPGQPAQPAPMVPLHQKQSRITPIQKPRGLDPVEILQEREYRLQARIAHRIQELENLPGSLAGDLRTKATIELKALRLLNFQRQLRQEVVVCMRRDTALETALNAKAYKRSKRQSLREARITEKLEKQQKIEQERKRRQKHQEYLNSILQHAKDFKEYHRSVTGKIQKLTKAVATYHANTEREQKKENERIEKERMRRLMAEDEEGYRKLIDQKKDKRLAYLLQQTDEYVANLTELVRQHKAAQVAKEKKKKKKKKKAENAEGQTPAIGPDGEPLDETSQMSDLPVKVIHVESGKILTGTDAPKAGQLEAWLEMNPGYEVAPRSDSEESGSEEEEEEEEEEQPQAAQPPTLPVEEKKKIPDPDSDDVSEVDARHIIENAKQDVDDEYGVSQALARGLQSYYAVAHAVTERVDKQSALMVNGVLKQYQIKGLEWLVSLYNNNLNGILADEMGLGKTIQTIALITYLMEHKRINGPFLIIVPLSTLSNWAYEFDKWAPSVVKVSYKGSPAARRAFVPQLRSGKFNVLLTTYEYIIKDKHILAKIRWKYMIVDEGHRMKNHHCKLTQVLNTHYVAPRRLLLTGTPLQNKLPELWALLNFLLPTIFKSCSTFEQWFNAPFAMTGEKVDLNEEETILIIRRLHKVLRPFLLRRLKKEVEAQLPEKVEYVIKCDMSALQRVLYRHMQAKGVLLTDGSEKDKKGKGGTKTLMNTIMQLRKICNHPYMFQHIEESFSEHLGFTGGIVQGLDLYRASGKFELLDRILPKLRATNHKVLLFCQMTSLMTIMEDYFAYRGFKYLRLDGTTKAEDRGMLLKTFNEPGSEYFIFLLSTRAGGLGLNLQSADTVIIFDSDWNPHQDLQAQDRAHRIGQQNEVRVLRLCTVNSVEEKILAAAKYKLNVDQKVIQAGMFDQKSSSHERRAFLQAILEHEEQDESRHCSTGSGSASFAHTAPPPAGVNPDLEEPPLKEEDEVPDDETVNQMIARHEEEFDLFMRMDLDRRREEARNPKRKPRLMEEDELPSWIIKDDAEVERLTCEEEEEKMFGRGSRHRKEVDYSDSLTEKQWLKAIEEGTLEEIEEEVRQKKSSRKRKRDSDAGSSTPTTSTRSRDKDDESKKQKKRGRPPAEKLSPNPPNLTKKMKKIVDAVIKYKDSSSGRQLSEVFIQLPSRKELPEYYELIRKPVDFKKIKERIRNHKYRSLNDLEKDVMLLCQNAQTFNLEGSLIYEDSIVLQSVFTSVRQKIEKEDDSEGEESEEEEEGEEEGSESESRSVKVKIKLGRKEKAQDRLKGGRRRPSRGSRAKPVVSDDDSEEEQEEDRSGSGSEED
bromo domain of SMARCA4 protein, sequence (P51532 whole entry, looked up, the tested form may be a part): as the sequence (P51532 whole entry) above
bromo domain of SMARCA4 protein, sequence (P40337 whole entry, looked up, the tested form may be a part): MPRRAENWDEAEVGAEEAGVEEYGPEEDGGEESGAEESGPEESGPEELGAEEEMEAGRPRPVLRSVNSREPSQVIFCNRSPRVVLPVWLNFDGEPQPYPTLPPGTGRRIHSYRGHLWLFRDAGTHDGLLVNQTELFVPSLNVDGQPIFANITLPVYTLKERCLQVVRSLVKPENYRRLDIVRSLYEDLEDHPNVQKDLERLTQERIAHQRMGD
bromo domain of SMARCA4 protein, sequence (Q15370 whole entry partner, looked up, the tested form may be a part): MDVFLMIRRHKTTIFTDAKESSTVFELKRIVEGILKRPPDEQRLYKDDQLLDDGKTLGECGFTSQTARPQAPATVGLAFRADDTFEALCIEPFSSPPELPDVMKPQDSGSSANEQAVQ
bromo domain of SMARCA4 protein, sequence (Q15369 whole entry partner, looked up, the tested form may be a part): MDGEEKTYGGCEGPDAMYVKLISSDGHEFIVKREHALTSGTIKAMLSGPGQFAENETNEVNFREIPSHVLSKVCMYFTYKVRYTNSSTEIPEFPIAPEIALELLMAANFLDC

For orientation: IC50 means the concentration at which inhibition is half-maximal. A word on the DC50: it is the midpoint of the concentration-degradation curve. For the compound `Cc1ncsc1-c1ccc([C@H](C)NC(=O)[C@@H]2C[C@@H](O)CN2C(=O)[C@@H](NC(=O)CN2CCN3c4cc(-c5ccccc5O)nnc4NCC3C2)C(C)(C)C)cc1` (single isomer, unassigned) [Example 1b], in experiment [1], the half-inhibitory concentration (IC50) is < 100 nM. Also, at SMARCA4 (H520 cells, overnight), the DC50 is 100 to 1000 nM.

As to `Cc1scnc1-c1ccc(CNC(=O)[C@@H]2C[C@@H](O)CN2C(=O)[C@@H](NC(=O)CN2CCN3c4cc(-c5ccccc5O)nnc4NCC3C2)C(C)(C)C)cc1` (single isomer, unassigned) [Example 2a], in experiment [1], the IC50 is 100 to 1000 nM. The DC50 at SMARCA4 (H520 cells, overnight) was 1000 to 10000 nM. In addition, the Dmax at SMARCA4 (NCI-H520, overnight, read-out: Dmax % (SM4_H520) maximum SMARCA4 degradation within the concentrations tested) was 50 to 75%.

In the case of `Cc1scnc1-c1ccc(CNC(=O)[C@@H]2C[C@@H](O)CN2C(=O)[C@@H](NC(=O)CN2CCN3c4cc(-c5ccccc5O)nnc4NCC3C2)C(C)(C)C)cc1` (single isomer, unassigned) [Example 2b], the IC50 in experiment [1] was < 100 nM. On SMARCA4 (H520 cells, overnight), the “Dmax % (SM4_H520) maximum SMARCA4 degradation within the concentrations tested” value was “C (C = Dmax <= 50%)” and the DC50 was ≥ 10000 nM.
